The source of these data is ChEMBL document CHEMBL1128274, “6-Aminoquinolones: a new class of quinolone antibacterials?” (1995).

Converted amounts (≈) assume the structure as drawn.

The subject of the first assay is Staphylococcus epidermidis. The assay is described as follows: Tested in vitro for inhibitory activity against gram positive bacteria Staphylococcus epidermidis HCF berset C strain. The class given is functional.
`CN1CCN(c2nc3c(cc2N)c(=O)c(C(=O)O)cn3C2CC2)CC1` came in with an MIC of 4 µg/mL (≈ 11.6 µM).
Still for that read-out and setting: under `CN1CCN(c2c(N)cc3c(=O)c(C(=O)O)cn(C4CC4)c3c2F)CC1` stands 8 µg/mL (≈ 22.2 µM).
The same measure, in the same setting: under `CN1CCN(c2cc3c(cc2N)c(=O)c(C(=O)O)cn3C(C)(C)C)CC1` stands 4 µg/mL (≈ 11.2 µM).

A further assay deals with Staphylococcus aureus. The assay is described as follows: Tested in vitro for inhibitory activity against gram positive bacteria Staphylococcus aureus ATCC 6538 strain. The class given is functional.
`CN1CCN(c2nc3c(cc2N)c(=O)c(C(=O)O)cn3C2CC2)CC1` came in with an MIC of 4 µg/mL (≈ 11.6 µM).
Molecule `CN1CCN(c2c(N)cc3c(=O)c(C(=O)O)cn(C4CC4)c3c2F)CC1` displayed an MIC of 4 µg/mL (≈ 11.1 µM).
In turn, `CN1CCN(c2cc3c(cc2N)c(=O)c(C(=O)O)cn3C(C)(C)C)CC1` yielded an MIC of 2 µg/mL (≈ 5.58 µM).

Another assay relates to Shigella. As to the kind of experiment: Tested in vitro for inhibitory activity against gram negative bacteria Shigella enteritidis. The assay is classed as functional.
On to `CN1CCN(c2nc3c(cc2N)c(=O)c(C(=O)O)cn3C2CC2)CC1`, for which the MIC worked out at 0.12 µg/mL (≈ 0.349 µM).
Same read-out and setting: under `CN1CCN(c2c(N)cc3c(=O)c(C(=O)O)cn(C4CC4)c3c2F)CC1` stands 0.25 µg/mL (≈ 0.694 µM); under `CN1CCN(c2cc3c(cc2N)c(=O)c(C(=O)O)cn3C(C)(C)C)CC1`, 1 µg/mL (≈ 2.79 µM).

Another assay deals with Staphylococcus epidermidis. The assay is described as follows: Tested in vitro for inhibitory activity against gram positive bacteria Staphylococcus epidermidis CPHL A2 strain. The class given is functional.
In the case of `CN1CCN(c2nc3c(cc2N)c(=O)c(C(=O)O)cn3C2CC2)CC1`, the MIC stood at 4 µg/mL (≈ 11.6 µM).
Same read-out and setting: the result for `CN1CCN(c2c(N)cc3c(=O)c(C(=O)O)cn(C4CC4)c3c2F)CC1` reads 4 µg/mL (≈ 11.1 µM); that for `CN1CCN(c2cc3c(cc2N)c(=O)c(C(=O)O)cn3C(C)(C)C)CC1`, 2 µg/mL (≈ 5.58 µM).

In the next assay the test system is Pseudomonas aeruginosa. As to the kind of experiment: Tested in vitro for inhibitory activity against gram negative bacteria Pseudomonas aeruginosa ATCC 9027 strain. The assay is classed as functional.
In the case of `CN1CCN(c2nc3c(cc2N)c(=O)c(C(=O)O)cn3C2CC2)CC1`, the MIC stood at 2 µg/mL (≈ 5.82 µM).
`CN1CCN(c2c(N)cc3c(=O)c(C(=O)O)cn(C4CC4)c3c2F)CC1` gave an MIC of 2 µg/mL (≈ 5.55 µM).
With `CN1CCN(c2cc3c(cc2N)c(=O)c(C(=O)O)cn3C(C)(C)C)CC1`, the MIC stood at 4 µg/mL (≈ 11.2 µM).

For a further assay, the system named is Providencia stuartii. The assay is described as follows: Tested in vitro for inhibitory activity against gram negative bacteria Providencia stuartii CNUR 5 strain. The class given is functional.
On to `CN1CCN(c2nc3c(cc2N)c(=O)c(C(=O)O)cn3C2CC2)CC1`, for which the MIC is 2 µg/mL (≈ 5.82 µM).
The same measure, in the same setting: under `CN1CCN(c2c(N)cc3c(=O)c(C(=O)O)cn(C4CC4)c3c2F)CC1` stands 4 µg/mL (≈ 11.1 µM).
`CN1CCN(c2cc3c(cc2N)c(=O)c(C(=O)O)cn3C(C)(C)C)CC1`: the MIC came to 4 µg/mL (≈ 11.2 µM).

The next assay relates to Escherichia coli. As to the kind of experiment: Tested in vitro for inhibitory activity against gram negative bacteria Escherichia coli ISF 432 cell lines at 25 ug/mL. The class given is functional.
Molecule `CN1CCN(c2nc3c(cc2N)c(=O)c(C(=O)O)cn3C2CC2)CC1` had an MIC of 0.03 µg/mL (≈ 0.0874 µM).
On the same count and under the same terms, under `CN1CCN(c2c(N)cc3c(=O)c(C(=O)O)cn(C4CC4)c3c2F)CC1` stands 0.05 µg/mL (≈ 0.139 µM); under `CN1CCN(c2cc3c(cc2N)c(=O)c(C(=O)O)cn3C(C)(C)C)CC1`, 0.06 µg/mL (≈ 0.167 µM).

The test system of another assay is Staphylococcus aureus. As to the kind of experiment: Tested in vitro for inhibitory activity against gram positive bacteria Staphylococcus aureus MPR 5 strain. The assay is classed as functional.
The molecule `CN1CCN(c2nc3c(cc2N)c(=O)c(C(=O)O)cn3C2CC2)CC1` registered an MIC of 4 µg/mL (≈ 11.6 µM).
The same measure, in the same setting: under `CN1CCN(c2c(N)cc3c(=O)c(C(=O)O)cn(C4CC4)c3c2F)CC1` stands 4 µg/mL (≈ 11.1 µM).
Molecule `CN1CCN(c2cc3c(cc2N)c(=O)c(C(=O)O)cn3C(C)(C)C)CC1` registered an MIC of 2 µg/mL (≈ 5.58 µM).

The subject of another assay is Enterobacter cloacae. As to the kind of experiment: Tested in vitro for inhibitory activity against gram negative bacteria Enterobacter cloacae OMNFI 174 strain. The assay is classed as functional.
The molecule `CN1CCN(c2nc3c(cc2N)c(=O)c(C(=O)O)cn3C2CC2)CC1` showed an MIC of 0.12 µg/mL (≈ 0.349 µM).
On the same count and under the same terms, under `CN1CCN(c2c(N)cc3c(=O)c(C(=O)O)cn(C4CC4)c3c2F)CC1` stands 0.25 µg/mL (≈ 0.694 µM); under `CN1CCN(c2cc3c(cc2N)c(=O)c(C(=O)O)cn3C(C)(C)C)CC1`, 1 µg/mL (≈ 2.79 µM).

Another assay has as its system Enterococcus faecalis. As to the kind of experiment: Tested in vitro for inhibitory activity against gram positive bacteria Streptococcus faecalis LEP Br strain. The assay is classed as functional.
As for `CN1CCN(c2nc3c(cc2N)c(=O)c(C(=O)O)cn3C2CC2)CC1`, the MIC amounted to 32 µg/mL (≈ 93.2 µM).
For the molecule `CN1CCN(c2c(N)cc3c(=O)c(C(=O)O)cn(C4CC4)c3c2F)CC1`, the MIC was found to be 64 µg/mL (≈ 178 µM).
Same read-out and setting: the result for `CN1CCN(c2cc3c(cc2N)c(=O)c(C(=O)O)cn3C(C)(C)C)CC1` reads 32 µg/mL (≈ 89.3 µM).

A further assay relates to Acinetobacter calcoaceticus. The assay is described as follows: Tested in vitro for inhibitory activity against gram negative bacteria Acinetobacter calcoaceticus OSMPV 113 strain. The assay is classed as functional.
For `CN1CCN(c2nc3c(cc2N)c(=O)c(C(=O)O)cn3C2CC2)CC1`, the MIC is 4 µg/mL (≈ 11.6 µM).
As for `CN1CCN(c2c(N)cc3c(=O)c(C(=O)O)cn(C4CC4)c3c2F)CC1`, the MIC is 8 µg/mL (≈ 22.2 µM).
As to `CN1CCN(c2cc3c(cc2N)c(=O)c(C(=O)O)cn3C(C)(C)C)CC1`, the MIC was 4 µg/mL (≈ 11.2 µM).

The next assay concerns Escherichia coli. As to the kind of experiment: Tested in vitro for inhibitory activity against gram negative bacteria Escherichia coli ATCC 8739 cell lines at 25 ug/mL. The class given is functional.
In the case of `CN1CCN(c2nc3c(cc2N)c(=O)c(C(=O)O)cn3C2CC2)CC1`, the MIC is 0.12 µg/mL (≈ 0.349 µM).
Same read-out and setting: under `CN1CCN(c2c(N)cc3c(=O)c(C(=O)O)cn(C4CC4)c3c2F)CC1` stands 1 µg/mL (≈ 2.77 µM); under `CN1CCN(c2cc3c(cc2N)c(=O)c(C(=O)O)cn3C(C)(C)C)CC1`, 0.06 µg/mL (≈ 0.167 µM).

In another assay the test system is Klebsiella pneumoniae. As to the kind of experiment: Tested in vitro for inhibitory activity against gram negative bacteria Klebsiella pneumoniae ATCC 10031 strain. The class given is functional.
`CN1CCN(c2nc3c(cc2N)c(=O)c(C(=O)O)cn3C2CC2)CC1`: the MIC was found to be 0.03 µg/mL (≈ 0.0874 µM).
On the same count and under the same terms, under `CN1CCN(c2c(N)cc3c(=O)c(C(=O)O)cn(C4CC4)c3c2F)CC1` stands 0.05 µg/mL (≈ 0.139 µM).
Still for that read-out and setting: under `CN1CCN(c2cc3c(cc2N)c(=O)c(C(=O)O)cn3C(C)(C)C)CC1` stands 0.06 µg/mL (≈ 0.167 µM).
